Source: patent US7473709B2, “11β-benzaldoxime derivatives of D-homooestra-4,9-dien-3-ones” (Bayer Schering Pharma AG, priority 2005, dated 2009)

How the values were obtained:
[1] = target: T1, Glucocorticoid receptor (GR) (Rattus norvegicus, UniProt P06536); test: Receptor binding affinity, glucocorticoid receptor (competitive binding with 3H-dexamethasone); conditions: for Glucocorticoid receptor (GR) dexamethasone = 100% (relative molar binding affinity, RBA): thymus cytosol of adrenalectomized rat, tracer 3H-dexamethasone 20 nM, reference dexamethasone = 100%
T1 construct: receptors in the cytosol from animal target organs; from tissue; host or cells: thymus cytosol of adrenalectomized rat
T1 sequence (P06536 1-795): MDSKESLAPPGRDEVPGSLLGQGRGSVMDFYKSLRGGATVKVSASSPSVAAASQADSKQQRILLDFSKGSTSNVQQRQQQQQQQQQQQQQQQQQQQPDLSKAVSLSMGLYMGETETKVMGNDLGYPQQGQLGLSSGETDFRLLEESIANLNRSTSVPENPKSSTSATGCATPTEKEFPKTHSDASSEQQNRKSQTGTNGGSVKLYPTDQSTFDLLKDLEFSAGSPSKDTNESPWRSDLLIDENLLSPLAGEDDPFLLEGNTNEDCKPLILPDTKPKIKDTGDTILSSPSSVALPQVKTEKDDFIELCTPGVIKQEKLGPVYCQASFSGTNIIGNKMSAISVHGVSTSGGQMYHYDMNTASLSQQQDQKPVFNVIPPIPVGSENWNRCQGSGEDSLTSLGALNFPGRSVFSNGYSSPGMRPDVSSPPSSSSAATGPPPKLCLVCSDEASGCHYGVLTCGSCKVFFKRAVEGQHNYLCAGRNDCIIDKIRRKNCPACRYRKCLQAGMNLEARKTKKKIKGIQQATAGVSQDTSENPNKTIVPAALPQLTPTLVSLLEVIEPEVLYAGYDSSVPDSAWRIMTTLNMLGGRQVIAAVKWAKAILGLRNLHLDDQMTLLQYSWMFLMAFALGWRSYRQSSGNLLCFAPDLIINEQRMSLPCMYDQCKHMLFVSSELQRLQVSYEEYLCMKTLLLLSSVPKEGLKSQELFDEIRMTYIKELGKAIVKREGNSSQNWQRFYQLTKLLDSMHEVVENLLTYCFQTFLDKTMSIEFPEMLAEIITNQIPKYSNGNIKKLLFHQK
Description: (§1) The receptor binding affinity was determined by the competitive binding of a specifically binding ^3H-labelled hormone (tracer) and the test compound to receptors in the cytosol from animal target organs, with the aim of achieving receptor saturation and reaction equilibrium.
(§2) The tracer and increasing concentrations of the test compound (competitor) were coincubated with the receptor-containing cytosol fraction at 0-4° C. for 18 h. After separation of the unbound tracer with a carbon/dextran suspension, the proportion of receptor-bound tracer was measured for each concentration and the IC50 was determined from the concentration series.
(§3) The following incubation conditions were chosen for the individual receptor types:
Thymus cytosol of the adrenalectomized rat, thymi stored at −30° C.; buffer: TED. Tracer: ^3H-dexamethasone, 20 nM; reference substance: dexamethasone.

[2] = target: T2, Progesterone receptor (PR) (Oryctolagus cuniculus, UniProt P06186); test: Receptor binding affinity, progesterone receptor (competitive binding with 3H-ORG 2058); conditions: uterus cytosol of oestradiol-primed rabbit; tracer 3H-ORG 2058 5 nM; reference progesterone = 100%
T2 construct: receptors in the cytosol from animal target organs; from tissue; host or cells: uterus cytosol of oestradiol-primed rabbit
T2 sequence (P06186 1-930): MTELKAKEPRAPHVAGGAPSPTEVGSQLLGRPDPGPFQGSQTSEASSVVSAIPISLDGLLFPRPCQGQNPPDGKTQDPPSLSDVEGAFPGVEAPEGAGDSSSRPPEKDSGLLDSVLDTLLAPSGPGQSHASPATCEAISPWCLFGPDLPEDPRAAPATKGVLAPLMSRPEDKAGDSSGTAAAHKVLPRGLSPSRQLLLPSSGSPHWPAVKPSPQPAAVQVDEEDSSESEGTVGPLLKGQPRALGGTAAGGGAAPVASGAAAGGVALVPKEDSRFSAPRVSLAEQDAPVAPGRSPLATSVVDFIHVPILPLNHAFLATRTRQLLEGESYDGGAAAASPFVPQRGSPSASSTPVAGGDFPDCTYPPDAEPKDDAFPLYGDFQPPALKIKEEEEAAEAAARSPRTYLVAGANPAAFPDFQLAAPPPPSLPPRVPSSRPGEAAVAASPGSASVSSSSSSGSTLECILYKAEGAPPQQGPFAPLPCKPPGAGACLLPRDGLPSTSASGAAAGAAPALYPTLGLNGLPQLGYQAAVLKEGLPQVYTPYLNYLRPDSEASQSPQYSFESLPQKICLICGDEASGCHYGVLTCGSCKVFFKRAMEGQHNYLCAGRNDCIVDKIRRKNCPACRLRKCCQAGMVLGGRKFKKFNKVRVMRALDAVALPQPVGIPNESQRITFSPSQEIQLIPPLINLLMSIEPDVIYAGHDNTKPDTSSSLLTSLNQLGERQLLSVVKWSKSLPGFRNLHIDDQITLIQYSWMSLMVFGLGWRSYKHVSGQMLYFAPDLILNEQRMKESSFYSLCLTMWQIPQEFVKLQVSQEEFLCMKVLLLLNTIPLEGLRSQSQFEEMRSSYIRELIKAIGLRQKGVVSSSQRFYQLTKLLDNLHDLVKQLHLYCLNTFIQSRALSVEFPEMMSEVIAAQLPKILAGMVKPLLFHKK
Description: as §1, §2, §3
Uterus cytosol of the oestradiol-primed rabbit, homogenized in TED buffer (20 mM Tris/HCI, pH 7.4; 1 mM ethylenediaminetetraacetate, 2 mM dithiothreitol) containing 250 mM sucrose; kept at −30° C.

| Compound | Glucocorticoid receptor (GR) dexamethasone = 100% (relative molar binding affinity, RBA) [1] [%] | Ratio GR/PR ([1]; ratio of RBA at GR to RBA at PR) | Progesterone receptor (PR) progesterone = 100% (relative molar binding affinity, RBA) [2] [%] |
| --- | --- | --- | --- |
| CC#C[C@]1(O)CC[C@H]2[C@@H]3CCC4=CC(=O)CCC4=C3[C@@H](c3ccc(N(C)C)cc3)C[C@@]21C [RU 38486, mifepristone] | 683 | – | – |
| 4-[17aβ-Methoxy-17aα-(methoxymethyl)-17a-homo-3-oxooestra-4,9-dien-11β-yl]benzaldehyde (1E)-[O-(ethylamino)carbonyl]oxime [Example 6] | 450 | 2.8 | 158 |
